Data on 23 molecules can be found in patent US12534429B2, “Heterodimers of glutamic acid” (Molecular Insight Pharmaceuticals, Inc., priority 2006, dated 2026).

As usually defined, the IC50 is the concentration that gives 50% inhibition. By pKd is commonly meant the negative decadic logarithm of the Kd, by convention in mol/L. Low values mean a large Kd, high ones a small Kd.

pIC50, pKd: −log10 of the molar value. Like-named read-outs stand apart in the source and are kept apart here. A value given as a limit tells only on which side of the number the result lay.

The subject of series [1] is LnCap cells. The series can be described thus: Direct binding of radiolabeled DCIT to PSMA-positive LnCap cells. Details: species or system human. As to conditions: counts displaceable by nonradiolabeled compound or PMPA. The method, then:
(§1) The histograms show the mean f SEM, each experiment was performed in duplicate.
(§2) In vitro cold screening assays verses I-131 DCIT. LNCaP and PC3 human prostate cancer cells were obtained from American Type Culture Collection, Rockville, MD LNCaP cells were maintained in RPMI-1640 medium supplemented with 10% fetal bovine serum (FBS). PC3 cells were grown in F12K medium supplemented with 10% FBS. Binding of the radiolabeled compound and competition with cold derivatives to LNCaP and PC-3 cells was performed according to the methods of Tang et al. (Tang, H.; Brown, M.; Ye, Y.; Huang, G.; Zhang, Y.; Wang, Y.; Zhai, H.; Chen, X.; Shen, T. Y.; Tenniswood, M., Prostate targeting ligands based on N-acetylated alpha-linked acidic dipeptidase, Biochem. Biophys. Res. Commun. 2003, 307, 8-14) with appropriate modifications. […] Total binding was determined by incubating I-131 DCIT without test compound. […] Cell binding of I-131 DCIT was determined by counting the cell pellet in an automated gamma counter. […]
(§3) (ii) In vitro dose screening. […] Binding constants were determined by incubating LnCap cells with various amounts of nonradiolabeled DCIT in the presence of a constant amount of I-131 DCIT and dividing by the specific activity of each solution to determine the number of fmoles compound bound (FIG. 6).

The subject of series [2] is PC3 cells. Description: Direct binding of radiolabeled DCIT to PSMA-negative PC3 cells. Also on record: species or system human. Here is the method: as §1, §2, §3
Series [3] addresses T1, PSMA on LNCaP cells (Homo sapiens, UniProt Q04609).
T1 construct: LNCaP human prostate cancer cells were obtained from American Type Culture Collection; host or cells: LNCaP human prostate cancer cells
The series can be described thus: In vitro cell binding: competition with I-131 DCIT for binding to PSMA on LNCaP cells. Particulars: for IC50: LNCaP cells, 3 nM I-131 DCIT, 1 hour, read-out: IC50 (nM), in vitro cell binding data; for pIC50: LnCap cells, dose curves. The method, then:
In vitro cold screening assays verses I-131 DCIT. LNCaP and PC3 human prostate cancer cells were obtained from American Type Culture Collection, Rockville, MD LNCaP cells were maintained in RPMI-1640 medium supplemented with 10% fetal bovine serum (FBS). PC3 cells were grown in F12K medium supplemented with 10% FBS. Binding of the radiolabeled compound and competition with cold derivatives to LNCaP and PC-3 cells was performed according to the methods of Tang et al. (Tang, H.; Brown, M.; Ye, Y.; Huang, G.; Zhang, Y.; Wang, Y.; Zhai, H.; Chen, X.; Shen, T. Y.; Tenniswood, M., Prostate targeting ligands based on N-acetylated alpha-linked acidic dipeptidase, Biochem. Biophys. Res. Commun. 2003, 307, 8-14) with appropriate modifications. Cells were plated in 12-well plates at approximately 4×10^5 cells/well and incubated for 48 hours in a humidified incubator at 37° C./5% carbon dioxide prior to addition of compound. Each unique SAAC-urea-Glu conjugate was prepared and diluted in serum-free cell culture medium containing 0.5% bovine serum albumin (BSA) in combination with 3 nM I-131 DCIT (known inhibitor). Total binding was determined by incubating I-131 DCIT without test compound. Plates were incubated at room temperature for 1 hour. Cells were removed from the plates by gently pipeting and transferred to eppendorff tubes. Samples were microcentrifuged for 15 seconds at 10K×g. The medium was aspirated and the pellet was washed twice by dispersal in fresh assay medium followed by microcentrifugation. Cell binding of I-131 DCIT was determined by counting the cell pellet in an automated gamma counter. […] The control compounds are depicted below.
The ability of non-radioactive analogs to compete with ^131I-DCIT for binding to PSMA was tested in the PSMA positive human prostate cancer cell line, LNCaP cells. LNCaP cells (300,000 cells/well) were incubated for 1 hour with 3 nM [^131I]-DCIT in the presence of 1-10,000 nM MIP-1072 in RPMI-1640 medium supplemented with 0.5% bovine serum albumin, then washed and counted in a gamma counter. All documents cited in this specification including patent applications are incorporated by reference in their entirety.

Series [4] concerns the target PSMA (LnCap cells) (Homo sapiens, UniProt Q04609). Description: Scatchard analysis in PSMA cellular binding assay (nonradiolabeled DCIT with I-131 DCIT). Here is the method:
FIG. 6 is Scatchard Analysis in PSMA Cellular Binding Assay with cold 2-{3-[1-Carboxy-2-(4-hydroxy-phenyl)-ethyl]-ureido}-pentanedioic acid (DCT).
as §3

Series [5] can be described thus: Stability of iodine-131 labeled compounds in solution (HPLC). The format is physicochemical. Here is the method: FIG. 4A-4D are radio-HPLC chromatograms of I-131 MIP 1072 purified; at 3 days in A) DMSO. B) 3% genstisate-6% Ascorbate/Ascorbic acid, C) PBS, pH=7.2, D) 10% Ethanol in Saline at 37° C.
The stability of the radiolabeled compound in solution was determined as a function of time. Specifically, after radiolabeling and isolation, the product was stored at room temperature for 48 h after which HPLC analysis was performed to check for degree of label retention, as well as potential product degradation. The reformation of NaI and the presence of the reduced iodates was analyzed.
The stability of the radiolabeled compound in solution was determined as a function of time. Specifically, after radiolabeling and isolation, the product was stored at 37° C. for 3 days after which HPLC analysis was performed to check for degree of label retention, as well as potential product degradation. The reformation of NaI and the presence of the reduced iodates was analyzed.

Setting [6] is: read-out: IC-50 versus I-131 DCIT.
[7] abbreviates: read-out: IC50 values versus I-131 DCIT.

T1 sequence (Q04609 whole entry): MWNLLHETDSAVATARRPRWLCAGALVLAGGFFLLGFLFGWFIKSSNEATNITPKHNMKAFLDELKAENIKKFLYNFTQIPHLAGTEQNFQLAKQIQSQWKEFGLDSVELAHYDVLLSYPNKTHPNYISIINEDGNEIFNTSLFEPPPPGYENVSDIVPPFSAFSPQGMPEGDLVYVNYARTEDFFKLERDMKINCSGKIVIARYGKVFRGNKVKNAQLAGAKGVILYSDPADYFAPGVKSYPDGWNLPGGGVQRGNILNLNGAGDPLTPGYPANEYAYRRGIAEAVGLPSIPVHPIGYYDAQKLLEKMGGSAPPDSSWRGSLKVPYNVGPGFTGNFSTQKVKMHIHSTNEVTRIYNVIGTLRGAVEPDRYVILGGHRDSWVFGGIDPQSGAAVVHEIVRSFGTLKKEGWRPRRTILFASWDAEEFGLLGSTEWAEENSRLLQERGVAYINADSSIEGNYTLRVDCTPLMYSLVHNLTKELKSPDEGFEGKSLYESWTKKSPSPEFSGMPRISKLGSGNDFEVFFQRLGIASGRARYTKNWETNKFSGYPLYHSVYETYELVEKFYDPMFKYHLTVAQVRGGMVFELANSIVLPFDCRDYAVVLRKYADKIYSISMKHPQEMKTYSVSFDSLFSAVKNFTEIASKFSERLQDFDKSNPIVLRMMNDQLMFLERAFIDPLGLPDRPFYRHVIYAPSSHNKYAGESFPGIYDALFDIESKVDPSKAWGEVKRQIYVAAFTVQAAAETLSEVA
Chain of PSMA (LnCap cells) (Q04609 whole entry): as above

For `O=C(O)CC[C@H](NC(=O)N[C@@H](Cc1ccc(O)c([123I])c1)C(=O)O)C(=O)O` [I-123 DCIT], the “specific binding to LnCap cells” value in series [1] is given as “bound specifically”. Also, the “specific binding to PC3 cells” value in series [2] is recorded as “not PC3 cells”.
Regarding `O=C(O)CC[C@H](NC(=O)N[C@@H](CCCCNCc1cccc(Cl)c1)C(=O)O)C(=O)O` [MIP 1131, (S, S)-2-{3-[1-Carboxy-5-(3-chloro-benzylamino)-pentyl]-ureido}-pentanedioic], in series [3], the IC50 was 277 nM.
For the molecule `O=C(O)CC[C@H](NC(=O)N[C@@H](Cc1ccc(O)c(I)c1)C(=O)O)C(=O)O` [DCIT, N—[N—[(S)-1,3-dicarboxypropyl]carbamoyl]-S-3-iodo-L-tyrosine], in series [4], the Bmax is 254 fmol and the negative-log Kd (pKd) was 6.58.
Consider “[Re(CO)3(2-{3-[5-(Bis-pyridin-2-ylmethyl-amino)-1-carboxy-pentyl]-ureido}-pentanedioic acid)][Br] [MIP 1029]”, for which the “competition with I-131 DCIT for binding to LnCap cells” value (“competition with I-131 DCIT” for short) in series [3] is on record as “did not compete”.
Turning to `O=C(O)CC[C@H](NC(=O)N[C@@H](CCCCNCc1ccccc1Cl)C(=O)O)C(=O)O` [MIP-1137, (S, S)-2-{3-[1-Carboxy-5-(2-chloro-benzylamino)-pentyl]-ureido}-pentanedioic], the half-inhibitory concentration (IC50) in series [3] stood at 245 nM.
Regarding “[Re(CO)3{(17R,21S)-11,19-dioxo-1-([…]yridine-2-yl)-2-([…]yridine-2-ylmethyl)-5,8-dioxa-2,12,18,20-tetraazatricosane-17,21,23-tricarboxylic acid}][Br] [MIP-1133]”, the IC50 in series [3] amounted to 227 nM.
Turning to `O=C(O)CC[C@H](NC(=O)N[C@@H](Cc1ccc(O)c(I)c1)C(=O)O)C(=O)O` [I-131 DCIT, N—[N—[(S)-1,3-dicarboxypropyl]carbamoyl]-S-3-iodo-L-tyrosine], the “specific binding to LnCap cells” value in series [1] is “bound specifically”. Further, the “specific binding to PC3 cells” value in series [2] is reported as “not PC3 cells”. Also, the “labeling stability (degradation)” value in series [5] (out to 2 days at room temperature) was “no significant degradation”.
In the case of `O=C(O)CC[C@H](NC(=O)N[C@@H](CCCCNCc1ccc(Cl)cc1)C(=O)O)C(=O)O` [MIP 1135, (S, S)-2-{3-[1-Carboxy-5-(4-chloro-benzylamino)-pentyl]-ureido}-pentanedioic], the half-inhibitory concentration (IC50) in series [3] is 2 nM.
As for `O=C(O)CC[C@H](NC(=O)NC(CCCCNCc1ccccc1)C(=O)O)C(=O)O` (stereo in doubt) [MIP-1106, (S)-2-(3-((R)-5-(benzylamino)-1-carboxypentyl)ureido)pentanedioic acid], the 50% inhibitory concentration (IC50) in series [3] turned out to be 2960 nM.
In the case of `O=C(O)CC[C@H](NC(=O)N[C@@H](CCCCN(Cc1ccccn1)Cc1ccccn1)C(=O)O)C(=O)O` [MIP 1008, (S, S)-2-{3-[5-(Bis-pyridin-2-ylmethyl-amino)-1-carboxy-pentyl]-ureido}-pentanedioic acid], the pIC50 in series [3] (setting [6]) is 7.01. For the same molecule, the “competition with I-131 DCIT” value in series [3] (screen at 2 uM test compound) is “competed”.
Turning to “[Re(CO)3{(35R,39S)-29,37-dioxo-1-([…]yridine-2-yl)-2-([…]yridine-2-ylmethyl)-5,8,11,14,17,20,23,26-octaoxa-2,30,36,38-tetraazahentetracontane-35,39,41-tricarboxylic acid}][Br] [MIP-1132]”, the IC50 in series [3] was determined as 1750 nM.
Regarding `O=C(O)CC[C@H](NC(=O)N(Cc1ccccn1)Cc1ccccn1)C(=O)O` [MIP 1025, (S)-2-(3,3-Bis-pyridin-2-ylmethyl-ureido)-pentanedioic acid], in series [3] (screen at 2 uM test compound), the “competition with I-131 DCIT” value is reported as “did not compete”.
In the case of `O=C(O)CC[C@H](NC(=O)N[C@@H](CCCCNC(=O)Nc1ccccc1)C(=O)O)C(=O)O` (stereo in doubt) [MIP 1111, 2-(3-{1-Carboxy-5-[3-(phenyl)-ureido]-pentyl}-ureido)-pentanedioic acid], the 50% inhibitory concentration (IC50) in series [3] was found to be 12 nM.
Regarding `O=C(O)CC[C@H](NC(=O)N[C@@H](CCCCNCc1ccc([131I])cc1)C(=O)O)C(=O)O` [I-131 1072], the “stability by radio-HPLC” value in series [5] (3 days at 37° C. in DMSO, gentisate/ascorbate, PBS pH 7.2, 10% ethanol in saline) was “remained stable”. The “labeling stability (degradation)” value in series [5] (out to 3 days at room temperature in DMSO, 10% ethanol/saline, PBS pH 7.2, 6% ascorbate/3% gentisic acid) is listed as “no significant degradation”.
Regarding `O=C(O)CC[C@H](NC(=O)N[C@@H](CCN(Cc1ccccn1)Cc1ccccn1)C(=O)O)C(=O)O` [MIP 1028, (S, S)-2-{3-[3-(Bis-pyridin-2-ylmethyl-amino)-1-carboxy-propyl]-ureido}-pentanedioic acid], in series [3] (screen at 2 uM test compound), the “competition with I-131 DCIT” value is on record as “did not compete”.
As for `NCCCC[C@H](NC(=O)N[C@@H](CCC(=O)O)C(=O)O)C(=O)O` [MIP 1033, (S, S)-2-[3-(5-Amino-1-carboxy-pentyl)-ureido]-pentanedioic acid], the concentration for half-maximal inhibition (IC50) in series [3] worked out at 498 nM. In series [3] (setting [6]), the pIC50 was 6.30. In addition, the “competition with I-131 DCIT” value in series [3] (screen at 2 uM test compound) is “competed”.
With `O=C(O)CC[C@H](NC(=O)N[C@@H](CCCCNS(=O)(=O)c1ccc(I)cc1)C(=O)O)C(=O)O` [MIP 1097, 2-{3-[1-carboxy-5-(4-iodo-benzenesulfonylamino)-pentyl]-ureido}-pentanedioic acid], the pIC50 in series [3] (setting [7]) is more than 7.30.
For the molecule `O=C(O)CC[C@H](NC(=O)N[C@@H](CCCCNC(=O)CCCCCCCCCCN(Cc1ccc(I)cc1)Cc1ccc(I)cc1)C(=O)O)C(=O)O` [MIP-1130, (19S,23S)-2-(4-iodobenzyl)-1-(4-iodophenyl)-13,21-dioxo-2,14,20,22-tetraazapentacosane-19,23,25-tricarboxylic acid], the concentration for half-maximal inhibition (IC50) in series [3] came out at 300 nM.
In the case of “[Re(CO)3{(19R,23S)-13,21-dioxo-2-([…]yridine-2-ylmethyl)-2,14,20,22-tetraazapentacosane-1,19,23,25-tetracarboxylic acid}] [MIP-1109]”, the 50% inhibitory concentration (IC50) in series [3] stood at 696 nM.
Regarding `O=C(O)CC[C@H](NC(=O)N[C@@H](CCCCNC(=O)Nc1ccc(I)cc1)C(=O)O)C(=O)O` [MIP 1095, 2-(3-{1-Carboxy-5-[3-(4-iodo-phenyl)-ureido]-pentyl}-ureido)-pentanedioic acid], in series [3], the IC50 is 10 nM. For the same molecule, the pIC50 in series [3] (setting [7]) was more than 7.30.
On to `O=C(O)CC[C@H](NC(=O)N[C@@H](CCCCNC(=O)NCc1cccc(I)c1)C(=O)O)C(=O)O` [MIP-1101, 2-(3-{1-Carboxy-5-[3-(3-iodo-benzyl)-ureido]-pentyl}-ureido)-pentanedioic acid], for which the IC50 in series [3] was 10 nM.
`O=C(O)CC[C@H](NC(=O)N[C@@H](CCCCNCc1cccc2ccccc12)C(=O)O)C(=O)O` [MIP-1108, (S)-2-(3-((R)-1-carboxy-5-([…]yridine[…]ne-1-ylmethylamino)pentyl)ureido)pentanedioic acid]: in series [3], the half-inhibitory concentration (IC50) came to 154 nM.
On the same count and under the same terms, the value for `O=C(O)CC[C@H](NC(=O)N[C@@H](CCCCNC(=O)Nc1ccc(Cl)cc1)C(=O)O)C(=O)O` [MIP 1110, 2-(3-{1-Carboxy-5-[3-(4-chloro-phenyl)-ureido]-pentyl}-ureido)-pentanedioic acid] was 4 nM.
